# Columns and labels:
# Escherichia coli [1] = assay: Antibacterial activity against Escherichia coli pTMV19 in presence of mevalonate; type: functional
# [2] = molecular target: T1, Farnesyl diphosphate synthase (Escherichia coli K-12, UniProt P22939); assay: Inhibition of Escherichia coli FPPS
# T1 sequence (P22939 whole entry): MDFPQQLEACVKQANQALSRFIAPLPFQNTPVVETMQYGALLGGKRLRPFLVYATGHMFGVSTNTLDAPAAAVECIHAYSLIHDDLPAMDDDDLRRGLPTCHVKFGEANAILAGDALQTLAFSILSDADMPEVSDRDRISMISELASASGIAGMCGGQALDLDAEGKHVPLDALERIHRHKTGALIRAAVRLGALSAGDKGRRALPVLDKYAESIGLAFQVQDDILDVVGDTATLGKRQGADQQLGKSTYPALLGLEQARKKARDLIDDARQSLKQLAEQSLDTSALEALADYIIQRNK
# Escherichia coli [3] = assay: Antibacterial activity against Escherichia coli pTMV19; type: functional
# Escherichia coli [4] = assay: Antibacterial activity against Escherichia coli W3110; type: functional
# Escherichia coli [5] = assay: Ratio, MIC/MBC for Escherichia coli K12; type: functional
# Escherichia coli [6] = assay: Antibacterial activity against Escherichia coli K12; type: functional
# [7] = Inhibition of Trypanosoma brucei FPPS expressed in Escherichia coli
# Escherichia coli [8] = assay: Antibacterial activity against Escherichia coli K12 by broth microdilution method; type: functional, organism-based
# Escherichia coli [9] = assay: Antibacterial activity against Escherichia coli K12 in presence of fosmidomycin; type: functional
# [10] = molecular target: T2, 1-deoxy-D-xylulose 5-phosphate reductoisomerase (Escherichia coli K-12, UniProt P45568); assay: Inhibition of Escherichia coli DXR
# T2 sequence (P45568 whole entry): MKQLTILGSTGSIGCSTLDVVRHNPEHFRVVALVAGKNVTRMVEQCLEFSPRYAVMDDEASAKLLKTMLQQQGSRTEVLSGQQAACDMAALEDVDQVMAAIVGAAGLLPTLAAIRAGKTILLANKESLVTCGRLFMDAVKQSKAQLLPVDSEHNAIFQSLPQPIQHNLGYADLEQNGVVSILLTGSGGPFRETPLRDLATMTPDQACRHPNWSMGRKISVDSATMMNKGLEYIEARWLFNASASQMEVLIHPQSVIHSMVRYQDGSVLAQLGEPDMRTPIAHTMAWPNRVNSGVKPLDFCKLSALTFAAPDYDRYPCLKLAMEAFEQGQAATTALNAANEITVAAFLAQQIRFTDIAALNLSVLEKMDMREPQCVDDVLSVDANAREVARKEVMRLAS
# Escherichia coli [11] = assay: Ratio, MIC/MBC for Escherichia coli K12 in presence of fosmidomycin; type: functional
Structure (SMILES),inhibition zone (IZ) (Escherichia coli [1]),IC50 [2],inhibition zone (IZ) (Escherichia coli [3]),inhibition zone (IZ) (Escherichia coli [4]),Ratio (Escherichia coli [5]),MBC (Escherichia coli [6]),MIC (Escherichia coli [6]),IC50 [7],IC50 (Escherichia coli [8]),MBC (Escherichia coli [9]),MIC (Escherichia coli [9]),IC50 [10],Ratio (Escherichia coli [11])
O=P(O)(O)C(O)(Cc1cnc2ccccn12)P(=O)(O)O [MINODRONIC ACID],0 mm,1100 nM,0 mm,10 mm,,,,,,,,,
O=P(O)(O)C(O)(Cn1cnc2ccccc21)P(=O)(O)O,13 mm,700 nM,0 mm,14 mm,,,,,,,,,
O=C(O)c1cn(C2CC2)c2cc(N3CCNCC3)c(F)cc2c1=O [CIPROFLOXACIN],,,,,0.5,0.076 µM,0.038 µM,,,,,,
O=CN(O)CCCP(=O)(O)O [FOSMIDOMYCIN],0 mm,,19 mm,20 mm,,2500 µM,312 µM,200 nM,220 nM,,,,
CN(CCCCc1ccccc1)CCC(O)(P(=O)(O)O)P(=O)(O)O,17 mm,1300 nM,18 mm,19 mm,0.13,1250 µM,156 µM,444000 nM,33000 nM,625 µM,312 µM,245000 nM,0.5
CC1(C)S[C@@H]2[C@H](NC(=O)C(C(=O)O)c3ccccc3)C(=O)N2[C@H]1C(=O)O (stereo partly drawn) [CARBENICILLIN],,,,,1,20 µM,20 µM,,,,,,
"O=P(O)(O)C(Nc1cc(Cl)cc(Cl)c1)P(=O)(O)O [(3,5-DICHLOROPHENYLAMINO)METHYLENEDIPHOSPHONIC ACID]",8 mm,,10 mm,0 mm,,,,,,,,,
Cc1ccnc(N(Cc2ccccc2)C(P(=O)(O)O)P(=O)(O)O)c1,0 mm,,0 mm,0 mm,,,,,,,,,
O=P(O)(O)C(Sc1ccccn1)P(=O)(O)O,0 mm,,0 mm,0 mm,,,,,,,,,
